The test system of the experiment is Staphylococcus aureus IF013276, Escherichia coli IF03972, Pseudomonas aeruginosa IF013275. In words: Antibacterial test (inoculated composition held at 30° C., colony counting method). In kind it is cell-based. On the procedure:
The following bacteria were suspended in a physiological saline such that the number of bacteria or spores was 10^8 CFU/mL. to prepare a bacteria-containing solution. Then, 0.005 mL of the thus obtained bacteria-containing solution was inoculated into 5 mL of the composition to be tested such that the bacteria concentration therein was […]. The thus inoculated composition was held at 30° C. for a predetermined period of time to measure the change in number of bacteria with time by the calculation using a colony counting method. The antibacterial property of the composition was evaluated according to the following four ratings.
Staphylococcus aureus IF013276
Pseudomonas aeruginosa IF013275
⊚: Sufficiently high antibacterial property (number of bacteria was decreased by […] or more)
◯: High antibacterial property (number of bacteria was decreased by […])
Δ: Low antibacterial property (number of bacteria was decreased by 10^2 to 10^1)

Regarding α,β-2-hexyldecyl galactoside, the “antibacterial property by itself” value (0.1% by mass without antiseptic agent, with polyoxyethylene (60) hydrogenated castor oil, Table 2, after 7 days) is “no antibacterial property”.
Turning to α,β-n-dodecyl galactoside, the “antibacterial property by itself” value (0.1% by mass in water without antiseptic agent, Table 1, after 9 days) is “no antibacterial property”.

Source of the values: patent US20090156511A1, “Agent for Enhancing Antiseptic Power” (Kao Corporation, priority 2005, published 2009).
